# Results published in patent US7091311B2, “Peptides and compounds that bind to a receptor” (SmithKline Beecham Corporation, priority 1996, dated 2006).
# pIC50: −log10 of the molar value. Like-named read-outs stand apart in the source and are kept apart here. Where a SMILES comes first, the peptide text is derived from it.
# Biological target: T1, TPO-R (Homo sapiens, UniProt P40238)
# T1 construct: made in house
# T1 sequence (P40238 26-491 limits assumed): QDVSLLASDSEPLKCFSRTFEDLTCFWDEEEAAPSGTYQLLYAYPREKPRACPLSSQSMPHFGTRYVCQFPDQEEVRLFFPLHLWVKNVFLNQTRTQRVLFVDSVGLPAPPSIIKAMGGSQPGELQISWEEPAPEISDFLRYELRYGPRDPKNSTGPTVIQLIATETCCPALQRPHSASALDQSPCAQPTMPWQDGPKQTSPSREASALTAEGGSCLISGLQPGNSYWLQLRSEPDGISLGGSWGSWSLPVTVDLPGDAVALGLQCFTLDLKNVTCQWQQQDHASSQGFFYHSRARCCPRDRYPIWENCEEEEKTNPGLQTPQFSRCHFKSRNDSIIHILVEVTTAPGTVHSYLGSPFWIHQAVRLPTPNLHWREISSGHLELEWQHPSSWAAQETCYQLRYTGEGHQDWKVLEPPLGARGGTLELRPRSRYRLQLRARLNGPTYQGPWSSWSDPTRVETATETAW
# Test: competition binding assay: MBP-TPO156 binding to immobilized TPO-R (ELISA)
# Conditions: read-out: IC50
# Experimental: A variety of methods can be used to evaluate IC50 values. For example, an equilibrium binding ELISA assay, using either MBP-TPO or lacI-peptide tracer, was used to determine whether the peptides inhibit the binding of TPO to the extracellular domain of the TPO receptor. Typically, the IC50 value were determined using the free peptide. The IC50value can be determined using the free peptide, which optionally can be C-terminally amidated, or can be prepared as an ester or other carboxy amide.
# Binding affinities of chemically synthesized peptides for TPO-R were measured in a competition binding assay. The wells of a microtiter plate were coated with 1 mg streptavidin, blocked with PBS/1% BSA, followed by 50 ng of biotinylated anti-receptor immobilizing antibody (Ab179). The wells were then treated with a 1:10 dilution of soluble TPO-R harvest. Various concentrations of peptide or peptide mimetic were mixed with a constant amount of a truncated form of TPO consisting of residues 1–156 fused to the C-terminus of maltose binding protein (MBP-TPO156). The peptide MBP-TPO156 mixtures were added to the TPO-R coated wells, incubated for 2 hours at 4° C. and then washed with PBS. The amount of MBP-TPO156 that was bound at equilibrium was measured by adding a rabbit anti-sera directed against MBP, followed by alkaline phosphatase conjugated goat anti-rabbit IgG. The amount of alkaline phosphatase in each well was then determined using standard methods.
# The assay is conducted over a range of peptide concentrations and the results are graphed such that the y axis represents the amount of bound MBP-TPO156 and the x axis represents the concentration of peptide or peptide mimetic.
"pIC50 (Table 7, dimer compounds)","pIC50 (Table 4, cyclized compounds)",SMILES
3.70,–,"CSCC[C@H](N)C(=O)N[C@H](C(=O)NCC(=O)N1CCC[C@H]1C(=O)N[C@H](C(=O)N[C@@H](CC(C)C)C(=O)N[C@@H](CCCNC(=N)N)C(=O)N[C@@H](CO)C(=O)NCC(=O)N[C@@H](CSSC[C@H](NC(=O)CNC(=O)[C@H](CO)NC(=O)[C@H](CCCNC(=N)N)NC(=O)[C@H](CC(C)C)NC(=O)[C@@H](NC(=O)[C@@H]1CCCN1C(=O)CNC(=O)[C@@H](NC(=O)[C@@H](N)CCSC)C(C)C)[C@@H](C)O)C(N)=O)C(N)=O)[C@@H](C)O)C(C)C (HELM PEPTIDE1{M.V.G.P.T.L.R.S.G.C.[am]}|PEPTIDE2{M.V.G.P.T.L.R.S.G.C.[am]}$PEPTIDE1,PEPTIDE2,10:R3-10:R3$$$V2.0)"
≥ 6.30,–,"CC(C)C[C@H](NC(=O)[C@H](Cc1c[nH]c2ccccc12)NC(=O)[C@H](CCC(N)=O)NC(=O)[C@H](CCCNC(=N)N)NC(=O)[C@H](CC(C)C)NC(=O)[C@@H](NC(=O)[C@@H]1CCCN1C(=O)CNC(=O)[C@H](CSSC[C@H](NC(=O)[C@H](CCC(N)=O)NC(=O)[C@@H](NC(=O)[C@@H](N)CO)C(C)C)C(=O)NCC(=O)N1CCC[C@H]1C(=O)N[C@H](C(=O)N[C@@H](CC(C)C)C(=O)N[C@@H](CCCNC(=N)N)C(=O)N[C@@H](CCC(N)=O)C(=O)N[C@@H](Cc1c[nH]c2ccccc12)C(=O)N[C@@H](CC(C)C)C(=O)N[C@@H](C)C(=O)N[C@@H](C)C(=O)N[C@@H](CCCNC(=N)N)C(=O)N[C@@H](CC(N)=O)C(=O)N[C@@H](Cc1c[nH]cn1)C(=O)N[C@@H](CC(C)C)C(=O)N[C@@H](CO)C(N)=O)[C@@H](C)O)NC(=O)[C@H](CCC(N)=O)NC(=O)[C@@H](NC(=O)[C@@H](N)CO)C(C)C)[C@@H](C)O)C(=O)N[C@@H](C)C(=O)N[C@@H](C)C(=O)N[C@@H](CCCNC(=N)N)C(=O)N[C@@H](CC(N)=O)C(=O)N[C@@H](Cc1c[nH]cn1)C(=O)N[C@@H](CC(C)C)C(=O)N[C@@H](CO)C(N)=O (HELM PEPTIDE1{S.V.Q.C.G.P.T.L.R.Q.W.L.A.A.R.N.H.L.S.[am]}|PEPTIDE2{S.V.Q.C.G.P.T.L.R.Q.W.L.A.A.R.N.H.L.S.[am]}$PEPTIDE1,PEPTIDE2,4:R3-4:R3$$$V2.0)"
–,≥ 6.30,"CC[C@H](C)[C@@H]1NC(=O)[C@H](Cc2c[nH]c3ccccc23)NC(=O)[C@H](CCC(=O)O)NC(=O)[C@H](CCCNC(=N)N)NC(=O)[C@H](CC(C)C)NC(=O)[C@H]([C@@H](C)O)NC(=O)[C@@H]2CCCN2C(=O)CNC(=O)[C@H](CC(=O)O)NC(=O)[C@H](C)NC(=O)CSC[C@@H](C(N)=O)NC(=O)[C@H](Cc2ccccc2)NC(=O)[C@H](CO)NC1=O (HELM PEPTIDE1{[O=C(C[*:3])[*:2]].A.D.G.P.T.L.R.E.W.I.S.F.C.[am]}$PEPTIDE1,PEPTIDE1,1:R3-14:R3$$$V2.0)"
≥ 6.30,–,"CC[C@H](C)[C@H](NC(=O)[C@H](Cc1c[nH]c2ccccc12)NC(=O)[C@H](CCC(=O)O)NC(=O)[C@H](CCCNC(=N)N)NC(=O)[C@H](CC(C)C)NC(=O)[C@@H](NC(=O)[C@@H]1CCCN1C(=O)CNC(=O)[C@H](CC(=O)O)NC(=O)[C@H](C)NC(C)=O)[C@@H](C)O)C(=O)N[C@@H](CO)C(=O)N[C@@H](Cc1ccccc1)C(=O)N[C@@H](CSSC[C@H](NC(=O)[C@H](Cc1ccccc1)NC(=O)[C@H](CO)NC(=O)[C@@H](NC(=O)[C@H](Cc1c[nH]c2ccccc12)NC(=O)[C@H](CCC(=O)O)NC(=O)[C@H](CCCNC(=N)N)NC(=O)[C@H](CC(C)C)NC(=O)[C@@H](NC(=O)[C@@H]1CCCN1C(=O)CNC(=O)[C@H](CC(=O)O)NC(=O)[C@H](C)NC(C)=O)[C@@H](C)O)[C@@H](C)CC)C(N)=O)C(N)=O (HELM PEPTIDE1{[ac].A.D.G.P.T.L.R.E.W.I.S.F.C.[am]}|PEPTIDE2{[ac].A.D.G.P.T.L.R.E.W.I.S.F.C.[am]}$PEPTIDE1,PEPTIDE2,14:R3-14:R3$$$V2.0; C-terminus assumed)"
